Source: patent publication US11833228B2, “Fluorinated beta-hydroxybutyric acids for PET imaging” (The Governors of the University of Alberta, priority 2019, dated 2023)

Columns and labels:
[1] = test system: MDA-MB231 breast cancer xenografts; experiment: Dynamic PET imaging of radiotracer uptake in MDA-MB231 tumor-bearing mice; format: in vivo, NIH-III nude mice; conditions: for SUV mean, Harderian glands / SUV mean, brain / SUV mean, heart / SUV mean, joint / SUV mean, kidneys / SUV mean, liver / SUV mean, muscle / SUV mean, spine / SUV mean, tumor: 60 min
Description: (§1) Normal BALB/c mice or breast cancer xenografts were used for the PET imaging experiments. Human MDA-MB231 cells (3-5×10^6 cells in 100 μL PBS) were injected subcutaneously into 8-12 weeks old anesthetized female NIH-III nude mice (Charles River, Saint-Constant, QC, Canada). Tumors were grown for 3-4 weeks, reaching sizes of 300-500 mm^3. For fasting experiments, the food was removed from the mice for 24 h prior to the PET experiment.
(§2) Mice were anesthetized with isoflurane (40% O2/60% N2) and their body temperature was kept constant at 37° C. They were positioned and immobilized in prone position into the centre of the field of view of an INVEON® PET scanner (Siemens Preclinical Solutions, Knoxville, TN, USA). A transmission scan for attenuation correction was not acquired. Radioactivity present in the injection solution (0.5 mL insulin syringe) was determined using a dose calibrator (Atomlab™ 300, Biodex Medical Systems, New York, NY, USA). After the emission scan was started, radioactivity (4-8 MBq in 100-150 μL saline) was injected with a delay of ˜15 s through a tail vein catheter. Dynamic PET data acquisition was performed in 3D list mode for 60 min. Dynamic list mode data were sorted into sinograms with 54 time frames (10×2 s, 8×5 s, 6×10 s, 6×20 s, 8×60 s, 10×120 s, 5×300 s). Frames were reconstructed using the maximum a posteriori (MAP) reconstruction mode. No correction for partial volume effects was performed. Image files were further processed using the ROVER v2.0.51 software (ABX GmbH, Radeberg, Germany). Masks defining 3D ROI were set and defined by 50% thresholding. Mean standardized uptake values [SUV=(activity/mL tissue)/(injected activity/body weight) were calculated for each ROI. Time-activity curves (TAC) were generated from the dynamic scans using GraphPad® Prism 5.04 (GraphPad Software, La Jolla, CA, USA).
(§3) All semi-quantified PET data are expressed as means±SEM. Where applicable, statistical differences were tested by unpaired Student's t test and were considered significant for p<0.05 (*), p<0.01 (**) and p<0.001 (***).

[2] = test system: normal BALB/c mice; experiment: Dynamic PET scans of normal BALB/c mice; format: in vivo; conditions: dynamic PET over 30 minutes; for clearance pathway: FIG. 4A; for heart and brain uptake and retention: FIG. 4A-C
Description: as §1
as §2, with “Dynamic PET data acquisition was performed in 3D list mode for 60 min.” left out
as §3

[3] = test system: subcutaneous MCF-7 breast cancer tumor; experiment: Dynamic PET imaging of radiotracer uptake in MCF-7 tumor-bearing mice; format: in vivo
Description: as §2, §3

O=C(O)C[C@H](O)C[18F] [(S)[^18F]FBHB, (S)-[^18F]γ-fluoro-β-hydroxybutyric acid]
SUV mean, Harderian glands ([1]; n=3, 24 h fasted): 1.15 ± 0.02 | SUV mean, brain ([1]; n=3, 24 h fasted): 1.17 ± 0.02 * | SUV mean, heart ([1]; n=3, 24 h fasted): 1.05 ± 0.02 * | SUV mean, joint ([1]; n=3, 24 h fasted): 1.07 ± 0.08 | SUV mean, kidneys ([1]; n=3, 24 h fasted): 1.38 ± 0.16 | SUV mean, liver ([1]; n=3, 24 h fasted): 0.80 ± 0.02 * | SUV mean, muscle ([1]; n=3, 24 h fasted): 0.60 ± 0.03 | SUV mean, spine ([1]; n=3, 24 h fasted): 1.13 ± 0.04 | SUV mean, tumor ([1]; n=3, 24 h fasted): 0.95 ± 0.04 | SUV mean, Harderian glands ([1]; n=3, fed (unfasted)): 1.10 ± 0.01 | SUV mean, brain ([1]; n=3, fed (unfasted)): 1.08 ± 0.02 | SUV mean, heart ([1]; n=3, fed (unfasted)): 0.96 ± 0.01 | SUV mean, joint ([1]; n=3, fed (unfasted)): 1.10 ± 0.08 | SUV mean, kidneys ([1]; n=3, fed (unfasted)): 1.44 ± 0.05 | SUV mean, liver ([1]; n=3, fed (unfasted)): 0.74 ± 0.01 | SUV mean, muscle ([1]; n=3, fed (unfasted)): 0.57 ± 0.01 | SUV mean, spine ([1]; n=3, fed (unfasted)): 1.10 ± 0.07 | SUV mean, tumor ([1]; n=3, fed (unfasted)): 0.91 ± 0.02 | visibility of xenograft tumors by PET imaging ([1]; intravenous administration, preliminary studies, FIGS. 8A-B and 9A-C): xenograft tumors were visible by PET imaging | tumor uptake compared with muscle uptake, comparison of isomers ([1]; subcutaneous MDA-MB-231 xenograft, FIG. 8B): higher uptake | clearance pathway [2]: renal clearance pathway | brain retention, comparison of isomers ([2]; FIG. 4A lower panel): brain retention highest for the S isomer | heart and brain uptake and retention [2]: moderate heart and brain uptake and retention

O=C(O)C[C@@H](O)C[18F] [(R)[^18F]FBHB, (R)-[^18F]γ-fluoro-β-hydroxybutyric acid]
brain uptake after 24 hour fast versus fed (SUV ratio versus time) ([3]; MCF7 tumor-bearing mice, FIG. 6A): increased | heart uptake after 24 hour fast versus fed (SUV ratio versus time) ([3]; MCF7 tumor-bearing mice, FIG. 6B): increased | tumor retention after 24 hour fast versus fed (SUV ratio versus time) ([3]; MCF7 tumor-bearing mice, FIG. 6C): better tumor retention | retention in tumor tissue compared to muscle tissue ([3]; subcutaneous MCF-7 tumor, FIG. 3A-B): higher retention in tumor tissue as compared to muscle tissue | SUV mean, Harderian glands ([1]; n=3, 24 h fasted): 1.39 ± 0.11 ^n.s. | SUV mean, brain ([1]; n=3, 24 h fasted): 1.02 ± 0.05 ^n.s. | SUV mean, heart ([1]; n=3, 24 h fasted): 0.95 ± 0.03 ^n.s. | SUV mean, joint ([1]; n=3, 24 h fasted): 1.58 ± 0.02 ^p=0.0501 | SUV mean, kidneys ([1]; n=3, 24 h fasted): 2.36 ± 0.25 ^n.s. | SUV mean, liver ([1]; n=3, 24 h fasted): 0.74 ± 0.02 ^n.s. | SUV mean, muscle ([1]; n=3, 24 h fasted): 0.54 ± 0.02 | SUV mean, spine ([1]; n=3, 24 h fasted): 1.56 ± 0.03 * | SUV mean, tumor ([1]; n=3, 24 h fasted): 0.89 ± 0.05 * | SUV mean, Harderian glands ([1]; n=3, fed (unfasted)): 1.56 ± 0.13 | SUV mean, brain ([1]; n=3, fed (unfasted)): 0.91 ± 0.07 | SUV mean, heart ([1]; n=3, fed (unfasted)): 0.84 ± 0.09 | SUV mean, joint ([1]; n=3, fed (unfasted)): 1.30 ± 0.10 | SUV mean, kidneys ([1]; n=3, fed (unfasted)): 1.96 ± 0.17 | SUV mean, liver ([1]; n=3, fed (unfasted)): 0.66 ± 0.08 | SUV mean, muscle ([1]; n=3, fed (unfasted)): 0.50 ± 0.05 | SUV mean, spine ([1]; n=3, fed (unfasted)): 1.39 ± 0.03 | SUV mean, tumor ([1]; n=3, fed (unfasted)): 0.77 ± 0.06 | MDA-MB-231 tumor and muscle uptake, 24 hour fast versus fed state (time activity curves) ([1]; FIGS. 9B-C): statistically significant increase in uptake | tumor retention in mice fed a glucose-free, fructose-based diet (SUV ratio versus time) ([1]; MDA-MB231 tumors, FIG. 7): higher | retention in tumor tissue compared to muscle tissue ([1]; subcutaneous MDA-MB231 tumor, FIG. 3A, 3C): higher retention in tumor tissue as compared to muscle tissue | clearance pathway [2]: renal clearance pathway | heart and brain uptake and retention [2]: moderate heart and brain uptake and retention
